# According to PMC12037037 (Proceedings of the National Academy of Sciences of the …, 2025):
# Legend:
# [1] = biological target: psychLight S242A^5.46 (murinized variant) (Homo sapiens, UniProt P28223, S242A); assay: PsychLight assay, S242A^5.46 mutant; format: cell-based
# [2] = test system: panel of 55 central nervous system targets; assay: Competitive radioligand binding selectivity panel (Eurofins Discovery)
# Description: Figure S3. Selectivity profiles for (+)-JRT and (–)-JRT across 55 central nervous system targets. The effects of (+)- JRT (10 μM) and (–)-JRT (10 μM) on a wide range of targets were assessed by Eurofins Discovery. Data represent % inhibition of the binding of a radioactively labeled ligand specific for each target. Assays were conducted in duplicate and the results were averaged.
# Data Analysis and Statistics. Treatments were randomized, and data were analyzed by experimenters blinded to treatment conditions. Statistical analyses were performed using GraphPad Prism (version 10.0.3) unless noted otherwise.
# All comparisons were planned prior to performing each experiment. No data were excluded. Data are represented as mean ± SEM, unless noted otherwise, with asterisks indicating *p < 0.05, **p < 0.01, ***p < 0.001, and ****p < 0.0001. Details of all statistical tests are shown in SI Appendix, Table S1. […]
# Both (+)-JRT and (–)-
# JRT were synthesized in-house and judged to be analytically pure based on NMR and LC-MS data. For cell culture experiments, VEH = 0.1% (agonist studies) or 0.2% (antagonist studies) molecular biology grade dimethyl sulfoxide (Sigma-Aldrich). For in vivo experiments, compounds were administered i.p. at 5 mL/kg using 0.9% saline as the vehicle, unless noted otherwise. VEH = USP grade saline (0.9%). Stock solutions for behavioral assays were prepared fresh before use.
# Fumarate salts of (+)-JRT and (–)-JRT were used for all biological studies unless noted otherwise.
# Animals. All experimental procedures involving animals were approved by the Institutional Animal Care and Use Committee (IACUC) at the University of California, Davis, the Salk Institute, Weill Cornell Medicine, McLean Hospital (Harvard Medical School), or the Contract Research Organization (CRO) where the study was performed. All procedures involving animals adhered to principles described in the National Institutes of Health Guide for the Care and Use of Laboratory Animals.
# Animals were either obtained from Jackson Laboratory (Sacramento, C.A.) or bred in-house unless noted otherwise. Power analyses were conducted to ensure appropriate sample sizes for all experiments involving animals. Animals were housed 2–5 animals of the same sex per cage on a 12h light/dark cycle and were given ad libitum access to food and water unless noted otherwise. The University of California, Davis, the Salk Institute, and Weill Cornell Medicine are accredited by the Association for Assessment and Accreditation of Laboratory Animal Care International (AAALAC). Whenever possible, both sexes were utilized. However, a single sex was utilized in some cases when 1) a contract research organization had only […]
# Radioligand Binding Selectivity Panel. Competitive radioligand binding studies for (+)-JRT (10 μM) and (–)-JRT (10 μM) were performed across a panel of receptors at Eurofins Discovery. Experiments were performed using the free bases of […]
# radioligand and source of receptor (5,6,7,8,9,10,11,12).
# Radioligand Binding Assays (5-HT2AR and 5-HT2CR). The 5-HT2AR and 5-HT2CR competitive radioligand binding assays were performed at Epics Therapeutics S.A. (Belgium, FAST-0505B) using conventional methods. Experiments were performed using the free bases of (+)-JRT and (–)-JRT. […] Nonspecific binding was determined by co-incubation with 200-fold excess of cold competitor DOI. […]
# [3] = test system: C57BL/6J mice; assay: 4-odor discrimination and reversal after unpredictable mild stress; format: in vivo
# [4] = biological target: 5-HT2 receptors (5-HT2A, 5-HT2B, 5-HT2C); assay: Competitive radioligand binding assays at 5-HT2 receptors; settings: read-out: Ki range, entire family of 5-HT2 receptors; free base
# [5] = biological target: T1, 5-HT2A receptors (Gi1, Gi3 activation) (Homo sapiens, UniProt P28223); assay: BRET-based assays of Gi1 and Gi3 activation; format: cell-based
# T1 construct: expressed in transfected cells; host or cells: HEK293T (transient)
# [6] = biological target: 5-HT5A (Homo sapiens, UniProt P47898); assay: Functional assay at 5-HT5A (Fig. S4); format: cell-based
# From the text: Figure S4. […] Radioligand binding (RLB) (top) and IP1 functional assays (bottom) for 5-HT1A (A), 5-HT5a (B), 5-HT6 (C), and 5-HT7 (D) receptors. Agonist or antagonist mode is indicated in the title of each graph. Data represent the mean ± SEM of 2 technical replicates.
# 5-carboxamidotryptamine; ND = not determined for incomplete curves.
# (1 picture or pasted object on this page, not shown here)
# [7] = test system: C57BL/6J mice; assay: Head-twitch response (HTR) assay; format: in vivo; settings: (+)-JRT 1 mg/kg IP pretreatment 15 min + LSD 0.2 mg/kg IP; mean ± SEM
# [8] = test system: male C57BL/6J mice; assay: Head-twitch antagonism of an LSD dose response (Transpharmation); format: in vivo; settings: +JRT PreTx (1 mg/kg IP, 30 min prior) then VEH (1% DMSO); -JRT 0.7 ± 0.3
# [9] = biological target: T2, human 5-HT2B receptor (Homo sapiens, UniProt P41595); assay: IP1 functional assay (5-HT2BR); format: cell-based
# T2 construct: host or cells: CHO
# [10] = Pharmacokinetics studies (plasma and brain); format: in vivo, rats
# Sequence of psychLight S242A^5.46 (murinized variant) (P28223 with tags, fused parts or gaps S242A): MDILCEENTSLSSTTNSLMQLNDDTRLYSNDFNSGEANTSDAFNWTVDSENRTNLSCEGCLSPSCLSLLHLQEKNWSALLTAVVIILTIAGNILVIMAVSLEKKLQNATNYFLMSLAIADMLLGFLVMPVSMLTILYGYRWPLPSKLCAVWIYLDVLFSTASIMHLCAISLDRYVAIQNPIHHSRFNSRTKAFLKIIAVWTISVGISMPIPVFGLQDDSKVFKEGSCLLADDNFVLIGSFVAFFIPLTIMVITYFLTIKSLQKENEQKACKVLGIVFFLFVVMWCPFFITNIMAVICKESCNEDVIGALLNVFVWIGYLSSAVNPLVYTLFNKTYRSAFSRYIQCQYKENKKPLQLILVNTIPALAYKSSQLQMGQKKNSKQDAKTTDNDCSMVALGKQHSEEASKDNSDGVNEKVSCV
# Sequence of psychLight S242A^5.46 (murinized variant) (P42212 with tags, fused parts or gaps partner): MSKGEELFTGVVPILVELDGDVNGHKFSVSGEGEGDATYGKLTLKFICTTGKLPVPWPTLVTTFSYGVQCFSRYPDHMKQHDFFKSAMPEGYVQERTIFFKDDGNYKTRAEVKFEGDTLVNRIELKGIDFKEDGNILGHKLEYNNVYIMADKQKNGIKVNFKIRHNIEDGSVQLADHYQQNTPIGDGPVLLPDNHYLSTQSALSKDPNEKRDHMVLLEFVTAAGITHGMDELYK
# T1 sequence (P28223 whole entry): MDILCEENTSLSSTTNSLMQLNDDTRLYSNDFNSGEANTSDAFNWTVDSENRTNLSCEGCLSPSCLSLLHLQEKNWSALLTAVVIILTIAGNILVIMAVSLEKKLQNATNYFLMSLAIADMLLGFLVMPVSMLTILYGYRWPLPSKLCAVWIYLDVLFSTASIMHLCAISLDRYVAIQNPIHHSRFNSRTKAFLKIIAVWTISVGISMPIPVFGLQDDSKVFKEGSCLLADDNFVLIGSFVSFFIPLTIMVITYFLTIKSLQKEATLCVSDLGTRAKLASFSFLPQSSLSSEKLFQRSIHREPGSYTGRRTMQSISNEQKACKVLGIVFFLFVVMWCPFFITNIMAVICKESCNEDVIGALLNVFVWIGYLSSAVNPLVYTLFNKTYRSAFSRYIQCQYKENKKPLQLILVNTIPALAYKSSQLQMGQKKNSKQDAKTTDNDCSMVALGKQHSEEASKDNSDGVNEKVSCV
# T2 sequence (P41595 whole entry): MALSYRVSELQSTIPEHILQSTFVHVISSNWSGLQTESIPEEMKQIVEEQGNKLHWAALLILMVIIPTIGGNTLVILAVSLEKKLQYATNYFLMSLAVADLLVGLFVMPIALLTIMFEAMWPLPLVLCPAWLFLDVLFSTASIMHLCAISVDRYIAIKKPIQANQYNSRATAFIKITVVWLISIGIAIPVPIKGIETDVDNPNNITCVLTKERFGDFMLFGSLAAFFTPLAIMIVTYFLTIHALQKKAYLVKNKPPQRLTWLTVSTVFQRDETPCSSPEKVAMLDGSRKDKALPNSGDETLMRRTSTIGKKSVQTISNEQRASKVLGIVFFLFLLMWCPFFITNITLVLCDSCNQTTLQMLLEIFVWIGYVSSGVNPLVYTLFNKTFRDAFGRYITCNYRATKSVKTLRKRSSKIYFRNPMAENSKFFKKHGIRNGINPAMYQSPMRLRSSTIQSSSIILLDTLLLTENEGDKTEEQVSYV
# Sequence of 5-HT5A (P47898 whole entry): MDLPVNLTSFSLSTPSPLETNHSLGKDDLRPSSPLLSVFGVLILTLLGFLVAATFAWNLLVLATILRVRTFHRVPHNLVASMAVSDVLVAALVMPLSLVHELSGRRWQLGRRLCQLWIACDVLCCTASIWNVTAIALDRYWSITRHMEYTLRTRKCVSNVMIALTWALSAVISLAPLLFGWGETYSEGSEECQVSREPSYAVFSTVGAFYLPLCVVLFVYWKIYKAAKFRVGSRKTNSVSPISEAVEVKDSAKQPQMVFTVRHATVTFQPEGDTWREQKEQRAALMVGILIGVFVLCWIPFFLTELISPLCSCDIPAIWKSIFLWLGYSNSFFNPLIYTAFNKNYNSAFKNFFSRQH
structure (smiles),measurement,setting,value
CCN(CC)C(=O)[C@@H]1C=C2c3cccc4ccn(c34)C[C@H]2N(C)C1 [(+)-JRT],EC50,"[1]; psychLight (S242A^5.46): EC50, agonist mode",0.039 µM
same,EC50,"[1]; psychLight (S242A^5.46): EC50, antagonist mode, cotreated with 10 μM serotonin (5-HT + compound)",0.473 µM
same,Emax,[1]; read-out: psychLight (S242A^5.46): EMax,32%
same,Selectivity across panel of 55 central nervous system targets,"[2]; 10 μM, free bases",highly selective for a subset of serotonin receptors
same,"Affinity for dopamine, histamine, or adrenergic receptors","[2]; radioligand binding, unlike LSD",neither of these compounds exhibited affinity
same,"Affinity for dopamine, histamine, muscarinic, and adrenergic receptors",[2]; unlike CLZ,lacks affinity
same,Discrimination (Figure 7B),"[3]; (+)-JRT 1 mg/kg IP + Stress (UMS), VEH + Stress 20.20 ± 1.843, VEH – Stress 21.27 ± 2.516",20.50 ± 2.212
same,Reversal (Figure 7B),"[3]; (+)-JRT 1 mg/kg IP + Stress (UMS), VEH + Stress 21.00 ± 2.385, VEH – Stress 13.64 ± 1.744",12.40 ± 1.118
same,Total Trials (Figure S17),"[3]; Stress + (+)-JRT 1 mg/kg IP, Stress 41.20 ± 3.972, VEH 34.91 ± 2.661",32.90 ± 2.479
same,Ki,[4],0.002 to 0.184 µM
same,Gi activation following stimulation of 5-HT2A receptors,[5],does not activate
same,Functional activity at 5-HT5A,[6],antagonist
same,Head-twitches over 20 min (Figure 5A Antagonism),[7],1.500 ± 0.3450
same,Head-twitch response over 20 min (Figure S9),[8],3.9 ± 0.567
same,Emax,[9],48%
same,Presence in rat brain and plasma within 2 h,[10]; 1 mg/kg IP dose,nearly absent
same,Levels in plasma or brain at 4 h,"[10]; 1 mg/kg IP, (+)-JRT fumarate, rats",below the limit of quantification
same,Brain concentration relative to the Ki at the 5-HT2AR,"[10]; 1 mg/kg, rat",~ 20 fold
